Results from patent publication US6737383B1, “Herbicidal oxadiazolidines” (priority 1999, dated 2004).

Assays:
[1] = tested on: velvetleaf; assay: Test B pre/postemergence velvetleaf; assay type: in vivo, Abutilon theophrasti; settings: for Plant response rating, Velvetleaf: Postemergence
How it was run: (§1)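 Test chemicals in a non-phytotoxic solvent mixture with surfactant were sprayed preemergence onto planted seeds and postemergence onto plants 2 to 18 cm tall (1- to 4-leaf stage). After twelve to sixteen days in a greenhouse, injury was visually rated against untreated controls from 0 (no effect) to 10 (complete control).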

[2] = tested on: bamyardgrass; assay: Test B flood test barnyardgrass; assay type: in vivo, Echinochloa crus-galli
How it was run: (§2)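 Flood test on plants grown to the 2-leaf stage; treated plants kept in greenhouse twelve to sixteen days, then visually rated against controls on a 0 (no effect) to 10 (complete control) scale.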

[3] = tested on: rape; assay: Test B pre/postemergence rape; assay type: in vivo, Brassica napus
How it was run: as §1

[4] = tested on: wheat; assay: Test B pre/postemergence wheat; assay type: in vivo, Triticum aestivum; settings: for Plant response rating, Wheat: Postemergence
How it was run: as §1

[5] = tested on: cocklebur; assay: Test B pre/postemergence cocklebur; assay type: in vivo, Xanthium strumarium
How it was run: as §1

[6] = tested on: pigweed; assay: Test B pre/postemergence pigweed; assay type: in vivo, Amaranthus retroflexus; settings: for Plant response rating, Redroot pigweed: Postemergence
How it was run: as §1

[7] = tested on: morningglory; assay: Test B pre/postemergence morningglory; assay type: in vivo, Ipomoea hederacea
How it was run: as §1

[8] = tested on: smallflower flatsedge; assay: Test B flood test smallflower flatsedge; assay type: in vivo, Cyperus difformis
How it was run: as §2

[9] = tested on: rice; assay: Test B flood test rice; assay type: in vivo, Oryza sativa
How it was run: as §2

[10] = tested on: blackgrass; assay: Test B pre/postemergence blackgrass; assay type: in vivo, Alopecurus myosuroides
How it was run: as §1

[11] = tested on: sugar beet; assay: Test B pre/postemergence sugar beet; assay type: in vivo, Beta vulgaris; settings: for Plant response rating, Sugarbeets: Postemergence
How it was run: as §1

[12] = tested on: soybean; assay: Test B pre/postemergence soybean; assay type: in vivo, Glycine max; settings: for Plant response rating, Soybean: Postemergence
How it was run: as §1

[13] = tested on: wild oat; assay: Test B pre/postemergence wild oat; assay type: in vivo, Avena fatua; settings: for Plant response rating, Wild oats: Postemergence
How it was run: as §1

[14] = tested on: duck salad; assay: Test B flood test duck salad; assay type: in vivo, Heteranthera limosa
How it was run: as §2

[15] = tested on: giant foxtail; assay: Test B pre/postemergence giant foxtail; assay type: in vivo, Setaria faberii
How it was run: as §1

[16] = tested on: purple nutsedge; assay: Test B pre/postemergence purple nutsedge; assay type: in vivo, Cyperus rotundus
How it was run: as §1

[17] = Rate 500 g/ha, scale of 0 to 10 where 0 is no effect and 10 is complete control
[18] = Preemergence, Rate 62 g/ha, scale 0 to 10 (0 no effect, 10 complete control)
[19] = Preemergence, Rate 125 g/ha, scale 0 to 10, 0 is no effect, 10 is complete control
[20] = Preemergence, Rate 500 g/ha, scale of 0 to 10 where 0 is no effect and 10 is complete control
[21] = Rate 250 g/ha, scale of 0 to 10 where 0 is no effect and 10 is complete control
[22] = Rate 62 g/ha, flood test species, Pre-emergence, visual evaluation after twelve to sixteen days
[23] = Rate 125 g/ha, under heading Pre-emergence, flood test species, visual evaluation after twelve to sixteen days
[24] = Rate 250 g/ha, Pre-emergence (flood test species), scale 0 to 10, 0 is no effect, 10 is complete control
[25] = Rate 500 g/ha, Pre-emergence section of Table B, 0 to 10 scale (0 no effect, 10 complete control)
[26] = Postemergence, Rate 62 g/ha, scale of 0 to 10, 0 is no effect, 10 is complete control
[27] = Postemergence, Rate 125 g/ha, scale 0 to 10, 0 is no effect, 10 is complete control
[28] = Postemergence, Rate 500 g/ha, scale of 0 to 10 where 0 is no effect and 10 is complete control
[29] = Rate 250 g/ha, Postemergence, scale of 0 to 10 where 0 is no effect and 10 is complete control

CC(C)N(C(=O)n1oc(=O)n(CCc2ccccc2)c1=O)c1ccccc1 [Compound 567]
Plant response rating, Velvetleaf [1, 17]: 2 | Velvetleaf plant response rating [1, 18]: 0 | Velvetleaf plant response rating [1, 19]: 0 | Velvetleaf plant response rating (0 to 10 scale) ([1]; Preemergence, Rate 250 g/ha): 0 | Velvetleaf plant response rating [1, 20]: 0 | Plant response rating, Velvetleaf [1, 21]: 0 | Plant response rating, Barnyardgrass (0 to 10 scale, 0 is no effect, 10 is complete control) [2, 22]: 0 | Barnyardgrass plant response rating (0 to 10 scale, 0 is no effect, 10 is complete control) [2, 23]: 0 | Barnyardgrass plant response rating [2, 24]: 0 | Barnyardgrass plant response rating [2, 25]: 0 | Rape plant response rating [3, 26]: 0 | Rape plant response rating [3, 27]: 0 | Plant response rating, Rape [3, 28]: 0 | Rape plant response rating [3, 18]: 0 | Rape plant response rating [3, 19]: 0 | Rape plant response rating (0 to 10 scale) ([3]; Preemergence, Rate 250 g/ha): 0 | Rape plant response rating [3, 20]: 0 | Plant response rating, Rape [3, 29]: 0 | Plant response rating, Wheat [4, 17]: 0 | Wheat plant response rating [4, 18]: 0 | Wheat plant response rating [4, 19]: 0 | Wheat plant response rating (0 to 10 scale) ([4]; Preemergence, Rate 250 g/ha): 0 | Wheat plant response rating [4, 20]: 0 | Plant response rating, Wheat [4, 21]: 0 | Cocklebur plant response rating [5, 26]: 0 | Cocklebur plant response rating [5, 27]: 0 | Plant response rating, Cocklebur [5, 28]: 2 | Cocklebur plant response rating [5, 18]: 0 | Cocklebur plant response rating [5, 19]: 0 | Cocklebur plant response rating (0 to 10 scale) ([5]; Preemergence, Rate 250 g/ha): 0 | Cocklebur plant response rating [5, 20]: 0 | Plant response rating, Cocklebur [5, 29]: 0 | Plant response rating, Redroot pigweed [6, 17]: 0 | Redroot pigweed plant response rating [6, 18]: 0 | Redroot pigweed plant response rating [6, 19]: 0 | Redroot pigweed plant response rating (0 to 10 scale) ([6]; Preemergence, Rate 250 g/ha): 8 | Redroot pigweed plant response rating [6, 20]: 9 | Plant response rating, Redroot pigweed [6, 21]: 0 | Morningglory plant response rating [7, 26]: 0 | Morningglory plant response rating [7, 27]: 4 | Plant response rating, Morningglory [7, 28]: 10 | Morningglory plant response rating [7, 18]: 0 | Morningglory plant response rating [7, 19]: 0 | Morningglory plant response rating (0 to 10 scale) ([7]; Preemergence, Rate 250 g/ha): 0 | Morningglory plant response rating [7, 20]: 0 | Plant response rating, Morningglory [7, 29]: 4 | Plant response rating, S. Flatsedge (0 to 10 scale, 0 is no effect, 10 is complete control) [8, 22]: 0 | S. Flatsedge plant response rating (0 to 10 scale, 0 is no effect, 10 is complete control) [8, 23]: 0 | S. Flatsedge plant response rating [8, 24]: 0 | S. Flatsedge plant response rating [8, 25]: 0 | Plant response rating, Rice (0 to 10 scale, 0 is no effect, 10 is complete control) [9, 22]: 0 | Rice plant response rating (0 to 10 scale, 0 is no effect, 10 is complete control) [9, 23]: 0 | Rice plant response rating [9, 24]: 0 | Rice plant response rating [9, 25]: 0 | Blackgrass plant response rating [10, 26]: 0 | Blackgrass plant response rating [10, 27]: 0 | Plant response rating, Blackgrass [10, 28]: 0 | Blackgrass plant response rating [10, 18]: 0 | Blackgrass plant response rating [10, 19]: 0 | Blackgrass plant response rating (0 to 10 scale) ([10]; Preemergence, Rate 250 g/ha): 0 | Blackgrass plant response rating [10, 20]: 7 | Plant response rating, Blackgrass [10, 29]: 0 | Plant response rating, Sugarbeets [11, 17]: 0 | Sugarbeets plant response rating [11, 18]: 0 | Sugarbeets plant response rating [11, 19]: 0 | Sugarbeets plant response rating (0 to 10 scale) ([11]; Preemergence, Rate 250 g/ha): 0 | Sugarbeets plant response rating [11, 20]: 2 | Plant response rating, Sugarbeets [11, 21]: 0 | Plant response rating, Soybean [12, 17]: 6 | Soybean plant response rating [12, 18]: 0 | Soybean plant response rating [12, 19]: 0 | Soybean plant response rating (0 to 10 scale) ([12]; Preemergence, Rate 250 g/ha): 0 | Soybean plant response rating [12, 20]: 0 | Plant response rating, Soybean [12, 21]: 4 | Plant response rating, Wild oats [13, 17]: 0 | Wild oats plant response rating [13, 18]: 0 | Wild oats plant response rating [13, 19]: 0 | Wild oats plant response rating (0 to 10 scale) ([13]; Preemergence, Rate 250 g/ha): 0 | Wild oats plant response rating [13, 20]: 0 | Plant response rating, Wild oats [13, 21]: 0 | Plant response rating, Ducksalad (0 to 10 scale, 0 is no effect, 10 is complete control) [14, 22]: 0 | Ducksalad plant response rating (0 to 10 scale, 0 is no effect, 10 is complete control) [14, 23]: 0 | Ducksalad plant response rating [14, 24]: 0 | Ducksalad plant response rating [14, 25]: 0 | Giant foxtail plant response rating [15, 26]: 0 | Giant foxtail plant response rating [15, 27]: 0 | Plant response rating, Giant foxtail [15, 28]: 0 | Giant foxtail plant response rating [15, 18]: 3 | Giant foxtail plant response rating [15, 19]: 9 | Giant foxtail plant response rating (0 to 10 scale) ([15]; Preemergence, Rate 250 g/ha): 10 | Giant foxtail plant response rating [15, 20]: 9 | Plant response rating, Giant foxtail [15, 29]: 0 | Nutsedge plant response rating [16, 26]: 4 | Plant response rating, Nutsedge [16, 28]: 0 | Nutsedge plant response rating [16, 18]: 0 | Nutsedge plant response rating [16, 19]: 0 | Nutsedge plant response rating (0 to 10 scale) ([16]; Preemergence, Rate 250 g/ha): 0 | Nutsedge plant response rating [16, 20]: 0
